Where “and” joins values, the source holds several entries; their conditions need not be identical. Equal entries are not always repeated. Where two headings read alike, the source gives them in different places.

Data set [1] has as its system rats subjected to MCAO.
For data set [2], the system named is rats subjected to MCAO. The data set can be described thus: Fluoro-Jade infarct area after MCAO. The data set is classed as in vivo, rat.
The next data set has as its system ASIC channels. The data set can be described thus: low-pH (pH 6.0) evoked ASIC-mediated increases in [Ca2+]i. Type of data set: cell-based, rat. As to conditions: 100 μM, pH 6.0.
In the next data set the test system is glutamate receptors. To be noted: 100 μM; cited from earlier work.
The subject of data set [3] is cultured cortical neurons. The data set can be described thus: in vitro ischemia (sodium azide/glucose deprivation), fura-2 [Ca2+]i. Type of data set: cell-based, rat. The method, then: The effects of sigma receptors on ischemia-induced changes in intracellular calcium concentrations were studied in cultured cortical neurons from embryonic (E18) rats. Dams were euthanatized by decapitation, uterus removed, and embryos dissected out and placed in isotonic buffer containing (in mM): 137 NaCl, 5 KCl, 0.2 NaH2PO4, 0.2 KH2PO4, 5.5 glucose, 6 sucrose (pH 7.4 with NaOH). Cortex were excised and minced, and tissue digested in isotonic buffer containing 0.25% trypsin/EDTA for 10 min at 37° C. and added to 3× volume of high glucose culture media (Dulbecco's Modified Eagle Media; Invitrogen, Inc., Carlsbad, Calif.), 10% (v/v) fetal calf serum, 100 U/ml penicillin and 0.1 mg/ml streptomycin. Cells were counted on a hemocytometer, plated (0.5×10^6 cells) on 18 mm coverslips coated with poly-l-lysine, and incubated at 37° C. under a 95% air, 5% CO2 atmosphere. After 24 hr the media was replaced with Neurobasal (Invitrogen) medium supplemented with B27 (Invitrogen) and 0.5 mM 1-glutamine to limit astrocyte proliferation in the cultures. Cells were used after 14-21 days in culture.
Intracellular free-calcium was measured using the calcium sensitive dye, fura-2 as previously described (DeHaven and Cuevas, 2004). Cells plated on coverslips were incubated for 1 hour at room temperature in physiological saline solution (PSS) consisting of (in mM): 140 NaCl, 3 KCl, 2.5 CaCl2, 1.2 MgCl2, 7.7 glucose and 10 HEPES (pH to 7.2 with NaOH), which also contained 1 μM of the membrane permeable ester form of fura-2, acetoxymethylester (fura-2 AM) and 0.1% dimethyl sulfoxide (DMSO). The coverslips were then washed in PSS (fura-2 AM free) prior to the experiments being carried out. All solutions were applied via a rapid application system identical to that previously described (Cuevas and Berg, 1998).
A DG-4 high-speed wavelength switcher (Sutter Instruments Co., Novato, Calif.) was used to apply alternating excitation light, and fluorescent emission was captured using a Sensicam digital CCD camera (Cooke Corporation, Auburn Hills, Mich.) and recorded with Slidebook 3.0 software (Intelligent Imaging Innovations, Denver, Colo.). Changes in [Ca^2+]i were calculated using the Slidebook 3 software (Intelligent Imaging Innovations) using methods described previously (DeHaven and Cuevas, 2004).
In vitro ischemia was achieved using the sodium azide/glucose deprivation model.
The control bath solution for all experiments was a physiological saline solution (PSS) containing (in mM) 140 NaCl, 1.2 MgCl2, 3 KCl, 2.5 CaCl2, 7.7 glucose and 10 HEPES, pH to 7.2 with NaOH. All drugs were applied in this solution unless otherwise noted. In vitro ischemia was induced by addition of the cytochrome oxidase inhibitor, NaN3 (4 mM), and removal of glucose from the PSS. For experiments in which multiple ischemic episodes were induced in a single cell, the order of drug application was alternatively reversed to compensate for any effects due to rundown, desensitization or ischemic preconditioning. For experiments with metaphit, cells were preincubated in 50 μM metaphit during the last 15 mm of fura-2 loading and immediately prior to experiments being conducted. The metaphit was washed off for 5 min in the bath using PSS.

For `Cc1ccccc1NC(=N)Nc1ccccc1C` [DTG, 1,3-di-o-tolyguanidine], the “survival rate 96 hours post MCAO” value with rats subjected to MCAO [1] (15 mg/kg daily s.c. at 24, 48, 72 h post MCAO) is given as “over 70%”; in the data set with rats subjected to MCAO [1] (30 mg/kg daily s.c. at 24, 48, 72 h post MCAO), “under 40%”. Further, in the data set on rats subjected to MCAO [1] (sham control, 15 mg/kg DTG), the “deaths in sham animals following DTG application” value is listed as “none”. The “decrease of Fluoro-Jade staining relative to untreated MCAO animals” value in the data set on rats subjected to MCAO [2] (15 mg/kg, 24 hr post stroke) was above 85%. For the same compound, the “infarct area (Fluoro-Jade labeled)” value stood at 2±2% in the data set on rats subjected to MCAO [2] (cortical/hippocampal region, 15 mg/kg DTG from 24 h post-MCAO (MCAO-only 29±3%)) and 6±4% in the data set with rats subjected to MCAO [2] (cortical/striatal region, 15 mg/kg DTG from 24 h post-MCAO (MCAO-only 44±5%)). In the data set with ASIC channels, the “effect on low-pH evoked transient increases in [Ca2+]i” value is “inhibits”. Moreover, the “inhibition of calcium elevations evoked by glutamate application” value with glutamate receptors is “not”. Further, the “ischemia-induced elevation in [Ca2+]i” value is 237 ± 39 nM in data set [3] (50 μM DTG after preincubation in 50 μM metaphit) and 47 ± 9 nM in data set [3] (50 μM DTG, no metaphit (control 291±47 nM)). The “decrease of ischemia-evoked elevation in [Ca2+]i” value in data set [3] (50 μM DTG, cells preincubated in 50 μM metaphit) turned out to be 52±8%. Further, in data set [3] (50 μM DTG, control cells), the “decrease of ischemia-evoked rise in [Ca2+]i” value is ~70% and 83±3%.

The values above are taken from patent publication US20070123556A1, “Treatment with Sigma Receptor Agonists Post-Stroke” (UNIVERSITY OF SOUTH FLORIDA, priority 2005, published 2007).
